In PubChem BioAssay AID248 (DTP/NCI, 2004):
Inconclusive results and toxic doses are left out. Rule as the data show it: active = T/C of 150% or more; inactive = T/C below 125%.

Tested on: L1210 leukemia ip in BDF1 mice, survival T/C
Assay: NCI In Vivo Anticancer Drug Screen. Data for tumor model L1210 Leukemia (intraperitoneal) in B6D2F1 (BDF1) mice
Conditions: endpoint: mean survival time, higher = longer survival
How it was run: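 Mice bearing the transplanted tumor received compound or vehicle. Survival of the treated group was divided by that of the vehicle-treated control group to give the ratio.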

[1] = dose: 100.0 mg/kg/injection, schedule: Q01DX001 (ip), vehicle: saline
[2] = dose: 200.0 mg/kg/injection, schedule: Q01DX001 (ip), vehicle: saline
[3] = dose: 400.0 mg/kg/injection, schedule: Q01DX001 (ip), vehicle: saline
[4] = dose: 100.0 mg/kg/injection, schedule: Q04DX003 (ip), vehicle: saline
[5] = dose: 200.0 mg/kg/injection, schedule: Q04DX003 (ip), vehicle: saline
[6] = dose: 400.0 mg/kg/injection, schedule: Q04DX003 (ip), vehicle: saline
[7] = dose: 100.0 mg/kg/injection, schedule: Q01DX001 (ip), vehicle: Klucel (hydroxypropylcellulose) (HPC)
[8] = dose: 200.0 mg/kg/injection, schedule: Q01DX001 (ip), vehicle: Klucel (hydroxypropylcellulose) (HPC)
[9] = dose: 400.0 mg/kg/injection, schedule: Q01DX001 (ip), vehicle: Klucel (hydroxypropylcellulose) (HPC)

Measured: T/C

COC(=O)c1cccc(O)c1O
inactive: dose: 100.0 mg/kg/injection, schedule: Q01DX005 (ip), vehicle: other 96 % of control | dose: 100.0 mg/kg/injection, schedule: Q01DX009 (ip), vehicle: other 114 % of control | dose: 200.0 mg/kg/injection, schedule: Q01DX005 (ip), vehicle: other 100 % of control | dose: 200.0 mg/kg/injection, schedule: Q01DX009 (ip), vehicle: other 107 % of control | dose: 400.0 mg/kg/injection, schedule: Q01DX005 (ip), vehicle: other 104 % of control | dose: 400.0 mg/kg/injection, schedule: Q01DX009 (ip), vehicle: other 88 % of control

CC(C1=C(CCN(C)C)Cc2ccccc21)c1ccccn1 (stereo unspecified)
inactive: [1] 107 % of control

C[C@H]1C[C@@H]2[C@H]([C@@H](O)C[C@@]3(C)[C@H]2CC[C@]3(O)C(=O)CF)[C@@]2(C)C=CC(=O)C=C12
inactive: dose: 62.0 mg/kg/injection, schedule: Q01DX015 (sc), vehicle: steriod suspending solution 97 % of control | dose: 100.0 mg/kg/injection, schedule: Q04DX003 (sc), vehicle: Klucel (hydroxypropylcellulose) (HPC) 101 % of control | dose: 125.0 mg/kg/injection, schedule: Q01DX015 (sc), vehicle: steriod suspending solution 94 % of control | dose: 200.0 mg/kg/injection, schedule: Q04DX003 (sc), vehicle: Klucel (hydroxypropylcellulose) (HPC) 102 % of control | dose: 250.0 mg/kg/injection, schedule: Q01DX015 (sc), vehicle: steriod suspending solution 102 % of control | dose: 400.0 mg/kg/injection, schedule: Q04DX003 (sc), vehicle: Klucel (hydroxypropylcellulose) (HPC) 115 % of control | dose: 500.0 mg/kg/injection, schedule: Q01DX015 (sc), vehicle: steriod suspending solution 102 % of control

CCOC(=O)c1c(C)c(C(=O)CC)c(C)n1C(=O)c1ccccc1
inactive: [1] 100 % of control | [2] 102 % of control | [3] 96 % of control

CN=C1N[N+]2=CCCCC2S1 (stereo unspecified)
inactive: dose: 25.0 mg/kg/injection, schedule: Q04DX002 (ip), vehicle: saline 86 % of control | dose: 40.0 mg/kg/injection, schedule: Q01DX009 (ip), vehicle: saline 95 % of control | dose: 50.0 mg/kg/injection, schedule: Q04DX002 (ip), vehicle: saline 111 % of control | dose: 60.0 mg/kg/injection, schedule: Q01DX009 (ip), vehicle: saline 104 % of control | dose: 80.0 mg/kg/injection, schedule: Q01DX009 (ip), vehicle: saline 107 % of control | dose: 100.0 mg/kg/injection, schedule: Q04DX002 (ip), vehicle: saline 99 % of control

CCOC(=O)N1Cc2cc3cc(OC)ccc3nc2C1
inactive: dose: 50.0 mg/kg/injection, schedule: Q01DX009 (ip), vehicle: acetone 98 % of control | dose: 100.0 mg/kg/injection, schedule: Q01DX009 (ip), vehicle: acetone 95 % of control | [4] 94 % of control | dose: 200.0 mg/kg/injection, schedule: Q01DX009 (ip), vehicle: acetone 95 % of control | [5] 89 % of control | [6] 105 % of control

O=C1c2cc(Cl)ccc2-c2c(NC(=O)C(Cl)Cl)cc(Cl)cc21
inactive: dose: 100.0 mg/kg/injection, schedule: Q01DX001 (ip), vehicle: carboxymethylcellulose (CMC) 91 % of control | dose: 200.0 mg/kg/injection, schedule: Q01DX001 (ip), vehicle: carboxymethylcellulose (CMC) 93 % of control | dose: 400.0 mg/kg/injection, schedule: Q01DX001 (ip), vehicle: carboxymethylcellulose (CMC) 96 % of control

CC(=O)Nc1ccc(Cc2cc(=O)[nH]c(=O)[nH]2)cc1
inactive: dose: 9.38 mg/kg/injection, schedule: Q01DX001 (ip), vehicle: saline with Tween-80 106 % of control | dose: 18.75 mg/kg/injection, schedule: Q01DX001 (ip), vehicle: saline with Tween-80 96 % of control | dose: 37.5 mg/kg/injection, schedule: Q01DX001 (ip), vehicle: saline with Tween-80 104 % of control

O=C(Oc1ccc(Br)cc1)c1cc([N+](=O)[O-])ccc1O
inactive: [1] 98 % of control | [2] 104 % of control | [3] 103 % of control

O=C(Nc1ccc2ccccc2c1)c1ccc(Cl)c(Cl)c1
inactive: dose: 100.0 mg/kg/injection, schedule: Q01DX009 (ip), vehicle: Klucel (hydroxypropylcellulose) (HPC) 95 % of control | dose: 200.0 mg/kg/injection, schedule: Q01DX009 (ip), vehicle: Klucel (hydroxypropylcellulose) (HPC) 103 % of control | dose: 400.0 mg/kg/injection, schedule: Q01DX009 (ip), vehicle: Klucel (hydroxypropylcellulose) (HPC) 103 % of control

O=c1oc2ccccc2c(=S)n1-c1ccccc1
inactive: [4] 105 % of control | [5] 94 % of control | [6] 91 % of control

O=C(CCC(C(=O)c1ccccc1)c1ccccc1)c1ccc(-c2ccccc2)cc1 (stereo unspecified)
inactive: dose: 87.5 mg/kg/injection, schedule: Q01DX009 (ip), vehicle: Klucel (hydroxypropylcellulose) (HPC) 94 % of control

O=C1OC(=O)c2cccc3cccc1c23
inactive: dose: 50.0 mg/kg/injection, schedule: Q01DX001 (ip), vehicle: Klucel (hydroxypropylcellulose) (HPC) 98 % of control | [7] 97 % of control | [8] 94 % of control | [9] 111 % of control

Cc1cc(N(CCOS(C)(=O)=O)CCOS(C)(=O)=O)ccc1C=Nc1cccc(Cl)c1
inactive: dose: 20.0 mg/kg/injection, schedule: Q04DX003 (ip), vehicle: Klucel (hydroxypropylcellulose) (HPC) 107 % of control | dose: 40.0 mg/kg/injection, schedule: Q04DX003 (ip), vehicle: Klucel (hydroxypropylcellulose) (HPC) 115 % of control | dose: 80.0 mg/kg/injection, schedule: Q04DX003 (ip), vehicle: Klucel (hydroxypropylcellulose) (HPC) 107 % of control | dose: 100.0 mg/kg/injection, schedule: Q04DX003 (ip), vehicle: Klucel (hydroxypropylcellulose) (HPC) 120 % of control

CCCCCCCCC/C(=N\N=C(N)N)c1ccccc1
inactive: dose: 15.0 mg/kg/injection, schedule: Q01DX Z (ip), vehicle: methylcellulose (MC) 94 % of control | dose: 30.0 mg/kg/injection, schedule: Q01DX Z (ip), vehicle: methylcellulose (MC) 96 % of control | dose: 50.0 mg/kg/injection, schedule: Q01DX Z (oral), vehicle: methylcellulose (MC) 89 % of control | dose: 60.0 mg/kg/injection, schedule: Q01DX Z (ip), vehicle: methylcellulose (MC) 90 % of control | dose: 60.0 mg/kg/injection, schedule: Q01DX Z (oral), vehicle: methylcellulose (MC) 102 % of control | dose: 120.0 mg/kg/injection, schedule: Q01DX Z (ip), vehicle: methylcellulose (MC) 108 % of control | dose: 120.0 mg/kg/injection, schedule: Q01DX Z (oral), vehicle: methylcellulose (MC) 98 % of control | dose: 240.0 mg/kg/injection, schedule: Q01DX Z (ip), vehicle: methylcellulose (MC) 96 % of control | dose: 400.0 mg/kg/injection, schedule: Q01DX Z (oral), vehicle: methylcellulose (MC) 89 % of control | dose: 480.0 mg/kg/injection, schedule: Q01DX Z (ip), vehicle: methylcellulose (MC) 113 % of control | dose: 1000.0 mg/kg/injection, schedule: Q01DX Z (ip), vehicle: methylcellulose (MC) 87 % of control | dose: 1500.0 mg/kg/injection, schedule: Q01DX Z (ip), vehicle: methylcellulose (MC) 100 % of control

COC(=O)c1ccc(N(C)C/C(CNc2nc(NC(C)=O)nc(SCc3ccccc3)c2[N+](=O)[O-])=N/O)cc1
inactive: dose: 100.0 mg/kg/injection, schedule: Q01DX001 (ip), vehicle: saline with Tween-80 92 % of control | dose: 200.0 mg/kg/injection, schedule: Q01DX001 (ip), vehicle: saline with Tween-80 86 % of control | dose: 400.0 mg/kg/injection, schedule: Q01DX001 (ip), vehicle: saline with Tween-80 96 % of control

Cc1cnc2c(N)nc(-c3ccccc3)nc2n1
inactive: [7] 94 % of control | [8] 103 % of control | [9] 100 % of control
